Where two headings read alike, the source gives them in different places.
Columns and labels:
[1] = system: athymic nu/nu NMRI mice with BxPC-3 tumors; test: BxPC-3-bearing tolerability study; format: in vivo, mouse; conditions: twice weekly 3 mg/kg, five injections, BxPC-3-bearing NMRI mice
From the text: A larger study was run in 50 athymic nu/nu NMRI mice (10 animals per group) inoculated with BxPC-3 pancreatic cancer cells since the study had been intended as a therapeutic efficacy trial (see section 2.9). Similarly solubilized SS66C derivatives were now included. In this study, the tumor growth rates in all animals were much lower than in any previous or subsequent trials (Figure S16c), so we could only extract data about drug tolerability, not antitumor efficacy. Still, the study confirmed that the solubilized P-SS60-, Me-SS66C-, and P-SS66C- prodrugs of -CBI-TMI, and the corresponding carbamate hydrolysis control P-CC60-CBI-TMI, were tolerated with twice weekly injections at 3 mg/kg, over a course of five injections, in all animals, since no distinct differences of body weight or animal health were seen as compared to the vehicle control (Figure S16a).
a Body weights b Body weights
$ Absolute Tumour Volumes d Absolute Tumour Volumes
Irinotecan Irinotecan Irinotecan Irinotecan
(a,b) Bodyweights (means);
confidence interval). […] Dotted vertical lines indicate days

HeLa-HRE cells = test: Resazurin cytotoxicity assay, HeLa-HRE, 48 h; conditions: for IC50(HeLa)/IC50(A549): ratio HeLa vs A549
Method: We used A549 lung cancer and HeLa cervical cancer cell lines for initial screening of the prodrugs.
HeLa-HRE cells were treated with prodrugs of the
Dose -response curves were calculated from at least 27 incremental single concentrations over a
range of at least three log units.

[2] = read-out: IC50(nM): HeLa, HeLa, 48 h

SMILES: COc1cc2cc(C(=O)N3C[C@@H](CCl)c4c3cc(OC(=O)N(CCC(=O)N3CCN(C)CC3)[C@H]3CCSSC3)c3ccccc43)[nH]c2c(OC)c1OC [P-SS60-CBI-TMI]
- tolerability [1]: tolerated
- IC50(HeLa)/IC50(A549) (HeLa-HRE cells): 2.3
- IC50 (HeLa-HRE cells; [2]): 420 nM

SMILES: COc1cc2cc(C(=O)N3CC(CCl)c4c3cc(OC(=O)N3CCN(C)C5CSSCC53)c3ccccc43)[nH]c2c(OC)c1OC (mixture of isomers) [Me-SS66T-CBI-TMI]
- IC50(HeLa)/IC50(A549) (HeLa-HRE cells): 10
- IC50 (HeLa-HRE cells; [2]): 59 nM

SMILES: COc1cc2cc(C(=O)N3C[C@@H](CCl)c4c3cc(OC(=O)N(CCC(=O)N3CCN(C)CC3)C3CCCCC3)c3ccccc43)[nH]c2c(OC)c1OC [P-CC60-CBI-TMI]
- tolerability [1]: tolerated
- IC50 (HeLa-HRE cells; initial screening, A549 and HeLa cell lines): > 1000 nM
- IC50(HeLa)/IC50(A549) (HeLa-HRE cells): 0.7
- IC50 (HeLa-HRE cells; [2]): 1250 nM

SMILES: COc1cc2cc(C(=O)N3C[C@@H](CCl)c4c3cc(OC(=O)N3CCN(C(=O)CCC(=O)N5CCN(C)CC5)[C@H]5CSSC[C@H]53)c3ccccc43)[nH]c2c(OC)c1OC [P-SS66C-CBI-TMI]
- tolerability [1]: tolerated
- IC50 (HeLa-HRE cells; Homo sapiens, HeLa, 48 h, read-out: IC50(nM): HeLa): 200 nM
- IC50(HeLa)/IC50(A549) (HeLa-HRE cells): 17

SMILES: COc1cc2cc(C(=O)N3CC(CCl)c4c3cc(OC(=O)N3CCN(C)C5CSSCC53)c3ccccc43)[nH]c2c(OC)c1OC (mixture of isomers) [Me-SS66C-CBI-TMI]
- tolerability [1]: tolerated
- IC50 (HeLa-HRE cells; [2]): 220 nM

From paper PMC10141580, “Cyclic Dichalcogenides Extend the Reach of Bioreductive Prodrugs to Harness Thiol/Disulfide Oxidoreductases: Applications to seco-Duocarmycins Targeting the Thioredoxin System” (ACS Central Science, 2023)
